Measured values: publication PMC10746112, “Synthesis and Pro-Apoptotic Effects of Nitrovinylanthracenes and Related Compounds in Chronic Lymphocytic Leukaemia (CLL) and Burkitt’s Lymphoma (BL)” (Molecules, 2023)
Where “and” joins values, the source holds several entries; their conditions need not be identical. Equal values may be shown once. Read-outs that look alike come from different tables or passages of the source.

What was measured:
[1] = system: DG-75 Burkitt’s lymphoma cell line; conditions: human, 48 h, 10 µM
[2] = system: MUTU-I Burkitt’s lymphoma cell line; conditions: human, 24 h, 10 µM
[3] = system: DG-75 Burkitt’s lymphoma cell line; experiment: alamarBlue cell viability assay; conditions: for viability at 1 µM / viability at 10 µM: Homo sapiens, DG-75, 48 h; for % Viable Cells Remaining DG-75: 48 h
[4] = system: MUTU-I Burkitt’s lymphoma cell line; experiment: alamarBlue cell viability assay; conditions: 24 h; for viability at 1 µM / viability at 10 µM: MUTU-I
PGA-1 CLL cell line = experiment: alamarBlue cell viability assay; conditions: 24 h; for % Viability PGA-1: 10 µM
HG-3 CLL cell line = experiment: alamarBlue cell viability assay; conditions: 24 h; for viability at 10 µM: read-out: % Viability HG-3, 10 µM, 24 h
[5] = system: DG-75 Burkitt’s lymphoma cell line; conditions: read-out: IC50 DG-75; previous work; cited from earlier work
[6] = system: MUTU-I Burkitt’s lymphoma cell line; conditions: cited from earlier work; for IC50: read-out: IC50 MUTU-I, previous work
[7] = read-out: % Viable Cells Remaining DG-75, 1 µM, 48 h
[8] = read-out: % Viable Cells Remaining DG-75, 10 µM, 48 h
[9] = read-out: % Viable Cells Remaining MUTU-1, 1 µM, 24 h
[10] = read-out: % Viable Cells Remaining MUTU-1, 10 µM, 24 h
[11] = CLL cell, read-out: % Viability PGA-1, 10 µM, 24 h
[12] = read-out: % Viable Cells Remaining MUTU-1
[13] = read-out: % Viable Cells Remaining DG-75

SMILES | viability at 1 µM [3, 7] | viability at 10 µM [3, 8] | viability at 1 µM [4, 9] | viability at 10 µM [4, 10] | further results
c1ccc2c(-c3c[nH]nn3)c3ccccc3cc2c1 [Compound 30a, 4-(anthracen-9-yl)-1H-1,2,3-triazole] | 104% | > 90% | 94.9% | > 90% | % Viable Cells Remaining DG-75 [1]: 94.86%; % Viable Cells Remaining MUTU-1 [2]: 94.5%
O=C(c1c2ccccc2cc2ccccc12)N1CCOCC1 [Compound 33e] | 86.1% | 80.2% | 86.9% | 85.2% | 
O=[N+]([O-])/C=C/c1cc2ccccc2c2ccccc12 [Compound 21, (E)-9-(2-Nitrovinyl)phenanthrene] | 99.5% | 60% |  |  | viability at 10 µM (PGA-1 CLL cell line; [11]): 11.8%; % Viable Cells Remaining DG-75 ([3]; 10 µM): 62.2%; viability at 1 µM [4, 12]: 73.6%; viability at 10 µM [4, 12]: 1.68%; viability at 10 µM (HG-3 CLL cell line; CLL cell): 29%
c1ccc2c(CN3CCCCCC3)c3ccccc3cc2c1 [Compound 29a] | 83.6% | 89.3% | 103% | 99% | 
O=C(c1c2ccccc2cc2ccccc12)N1CCCCCC1 [Compound 33c, Anthracen-9-yl(Azepan-1-yl)Methanone] | 69.6% | 71.6% | 86.8% | 77.4% | melting point: 134 to 137 °C; % Viable Cells Remaining MUTU-1 [2]: 77.4%
N#CC(C#N)=Cc1c2ccccc2cc2ccccc12 [Compound 23a] |  |  |  |  | viability at 10 µM (PGA-1 CLL cell line; CLL cell, read-out: % Viability PGA-1): > 50%; viability at 1 µM [3, 13]: 104%; viability at 10 µM [3, 13]: 98.1%; viability at 1 µM [4, 12]: 91.9%; viability at 10 µM [4, 12]: 65.3%
O=[N+]([O-])/C=C/c1c2ccccc2c(-c2ccccc2)c2ccccc12 [Compound 19j, (E)-9-(2-Nitrovinyl)-10-Phenylanthracene] | 83.5% | 1.5% | 68.5% | 1.29% | 
C/C(=C\c1c2ccccc2c(Cl)c2ccccc12)[N+](=O)[O-] [Compound 19e] | 82.5% | 99.6% | 105% | 98.6% | % Viable Cells Remaining MUTU-1 [2]: 98.6%; viability at 10 µM (HG-3 CLL cell line; CLL cell): 87%
O/N=C/c1c2ccccc2cc2ccccc12 [Compound 32c] | 92.5% | 101% | 99.2% | 92.7% | 
C/C(=C\c1c2ccccc2cc2ccccc12)[N+](=O)[O-] [Compound 19b, (E)-9-(2-nitroprop-1-en-1-yl)anthracene] | 102% | 89.3% | 99.8% | 88.2% | viability at 10 µM (PGA-1 CLL cell line; [11]): 81%; viability at 10 µM (HG-3 CLL cell line; CLL cell): 82%
N#CCc1c2ccccc2cc2ccccc12 [Compound 28, 2-(anthracen-9-yl)acetonitrile] | 93.8% | 85.2% | 95.2% | 88.8% | 
COc1ccc2c(c1)OC(c1ccccc1)C([N+](=O)[O-])=C2 (centres unmarked) [Compound 10b, reference compound] |  |  |  |  | IC50 [5]: 1920 nM; IC50 [6]: 470 nM
ClCc1c2ccccc2cc2ccccc12 [Compound 27, 9-(chloromethyl)anthracene] | 79% | 85.5% | 102% | 93.8% | % Viable Cells Remaining MUTU-1 [2]: 93.8%
CCN(CC)C(=O)c1c2ccccc2cc2ccccc12 [Compound 33a] | 90.1% | 90.5% | 105% | 103% | 
N#CC(C#N)=Cc1c2ccccc2c(Cl)c2ccccc12 [Compound 23b, 2-((10-Chloroanthracen-9-yl)Methylene)Malononitrile] |  |  |  |  | % Viability PGA-1 (PGA-1 CLL cell line): > 50%; melting point: 196 to 198 °C; % Viable Cells Remaining DG-75 ([3]; 1 µM): 85.59%; % Viable Cells Remaining DG-75 ([3]; 10 µM): ~ 55% and 52.84%; % Viable Cells Remaining MUTU-1 ([4]; 1 µM): 92.59%; % Viable Cells Remaining MUTU-1 ([4]; 10 µM): ~ 20% and 16.78%
O=C(c1c2ccccc2cc2ccccc12)N1CCCC1 [Compound 33d] | 69.4% | 67.1% | 91.6% | 95.6% | melting point: 149 to 151 °C; % Viable Cells Remaining MUTU-1 [2]: 95.6%
O/N=C/Cc1c2ccccc2cc2ccccc12 [Compound 32e] | 102% | 93% | 103% | 94.9% | 
CC/C(=C\c1ccccc1F)[N+](=O)[O-] [Compound 11d] |  |  |  |  | % Viability PGA-1 (PGA-1 CLL cell line): 0.02%; % Viability HG-3 (HG-3 CLL cell line; 10 µM): 0.66%; viability at 1 µM (HG-3 CLL cell line; CLL cell, read-out: % Viability HG-3, 1 µM, 24 h): 14.5%

SMILES | viability at 1 µM [3, 7] | viability at 10 µM [3, 8] | viability at 1 µM [4, 9] | viability at 10 µM [4, 10] | further results
c1ccc2c(CN3CCCC3)c3ccccc3cc2c1 [Compound 29b] | 93.2% | 97.2% | 108% | 106% | 
O=[N+]([O-])/C(=C/c1ccc(Cl)cc1)Cc1ccc(Cl)cc1 [Compound 10c, reference compound] |  |  |  |  | IC50 [5]: 6390 nM; IC50 [6]: 2970 nM
N/N=C/c1c2ccccc2cc2ccccc12 [Compound 32a] | 104% | 102% | 97.5% | 95.5% | 
O=[N+]([O-])/C=C/c1c2ccccc2c(Cl)c2ccccc12 [Compound 19d] | 75.1% | 57.1% | 70.8% | 7.6% | viability at 10 µM (PGA-1 CLL cell line; [11]): 51.8%; % Viable Cells Remaining MUTU-1 [2]: 7.61%; viability at 10 µM (HG-3 CLL cell line; CLL cell): 97%
OCc1c2ccccc2cc2ccccc12 [Compound 26, anthracen-9-ylmethanol] | 102% | 93% | 106% | 94.9% | 
O=C(c1c2ccccc2cc2ccccc12)N1CCCCC1 [Compound 33f] | 72.5% | 78.8% | 83.1% | 84.8% | melting point: 181 to 183 °C; % Viable Cells Remaining MUTU-1 [2]: 84.8%
CC/C(=C\c1c2ccccc2c(Cl)c2ccccc12)[N+](=O)[O-] [Compound 19f, (E)-9-chloro-10-(2-nitrobut-1-en-1-yl)anthracene] | 105% | 78% | 96.6% | 97.5% | % Viable Cells Remaining MUTU-1 [2]: 97.5%
CN(C)C(=O)c1c2ccccc2cc2ccccc12 [Compound 33b] | 96.2% | 75% | 91.4% | 90.1% | melting point: 150 to 152 °C; % Viable Cells Remaining MUTU-1 [2]: 90.1%
N#C/C=C/c1c2ccccc2cc2ccccc12 [Compound 23c] | 84.2% | 82% | 88.1% | 86.9% | 
CC/C(=C\c1c2ccccc2cc2ccccc12)[N+](=O)[O-] [Compound 19c] | 83.8% | 92.3% | 88.6% | 78% | viability at 10 µM (PGA-1 CLL cell line; [11]): 66%; viability at 10 µM (HG-3 CLL cell line; CLL cell): 72%
O=[N+]([O-])/C=C/c1c2ccccc2c(Br)c2ccccc12 [Compound 19h, (E)-9-Bromo-10-(2-Nitrovinyl)Anthracene] | 84.8% | 70% | 51.2% | 3.36% | viability at 10 µM (PGA-1 CLL cell line; [11]): 36.9%; melting point: 227 to 230 °C
CNCCCC12CCC(c3ccccc31)c1ccccc12 [Maprotiline, maprotiline, reference compound] | 102% | 65% | 93.1% | 72% | 
O=[N+]([O-])/C=C/c1c2cccc(Cl)c2cc2c(Cl)cccc12 [Compound 19k, (E)-1,8-Dichloro-10-(2-Nitrovinyl)Anthracene] | 88.7% | 0.15% | 71% | -0.18% | 
O=[N+]([O-])C=CCc1c2ccccc2cc2ccccc12 [Compound 20a, 9-(3-Nitroallyl)Anthracene] | 99.9% | 79 to 97% | 106% |  | viability at 10 µM (PGA-1 CLL cell line; [11]): > 50%; % Viable Cells Remaining DG-75 [1]: 79.71%
CC/C(=C\c1cc(Br)ccc1OC)[N+](=O)[O-] [Compound 10a, (E)-4-bromo-1-methoxy-2-(2-nitrobut-1-en-1-yl)benzene, reference compound] |  |  |  |  | viability at 1 µM (PGA-1 CLL cell line; CLL cell, read-out: % Viability PGA-1, 1 µM, 24 h): 96.4%; viability at 10 µM (PGA-1 CLL cell line; [11]): 0.97%; IC50 [5]: 1410 nM; IC50 [6]: 450 nM
C/C(=C\c1ccc(F)cc1)[N+](=O)[O-] [Compound 11c] |  |  |  |  | viability at 10 µM (PGA-1 CLL cell line; [11]): 3.7%; % Viable Cells Remaining MUTU-1 24 h 10 µM ([6]; nitrostyrenes, 10 µM, 24 h): 19.06%; viability at 10 µM (HG-3 CLL cell line; CLL cell): 8.76%
N/N=C/c1c2ccccc2c(Cl)c2ccccc12 [Compound 32b] | 94.8% | 100% | 105% | 82.5% | 
